According to ChEMBL document CHEMBL3792312, “Synthesis and docking studies of pyrazine-thiazolidinone hybrid scaffold targeting dormant tuberculosis” (Bioorg Med Chem Lett, 2016):
Values after ≈ are worked out from the molar mass of the structure shown.

What was measured:
[1] = test system: Mycobacterium tuberculosis; assay: Antitubercular activity against dormant Mycobacterium tuberculosis H37Ra after 12 days by XTT-Menadione assay; format: functional, organism-based; settings: 288 h
[2] = Cytotoxicity against human THP1 cells after 5 days by MTT assay; format: cell-based, THP-1; settings: for IC50: Homo sapiens, THP-1, 120 h; for MCC at 120 h: human, THP1 cells, read-out: MIC
[3] = Cytotoxicity against human PANC1 cells after 5 days by MTT assay; format: cell-based, PANC-1; settings: for IC50: Homo sapiens, PANC-1, 120 h; for MCC at 120 h: human, PANC1 cells, read-out: MIC
[4] = (§1) Cytotoxicity against human A549 cells after 3 days by MTT assay; format: cell-based; settings: human, A549 cells; read-out: MIC
A549 = assay: as §1; format: cell-based; settings: Homo sapiens, A549, 72 h
[5] = (§2) Cytotoxicity against human MCF7 cells after 4 days by MTT assay; format: cell-based; settings: human, MCF7 cells; read-out: MIC
MCF7 = assay: as §2; format: cell-based; settings: Homo sapiens, MCF7, 96 h
[6] = test system: Mycobacterium tuberculosis; assay: Antitubercular activity against dormant Mycobacterium tuberculosis H37Ra at 30 ug after 12 days by XTT-Menadione assay; format: functional
[7] = test system: Mycobacterium tuberculosis; assay: Antitubercular activity against dormant Mycobacterium tuberculosis H37Ra at 10 ug after 12 days by XTT-Menadione assay; format: functional
[8] = test system: Mycobacterium tuberculosis; assay: Antitubercular activity against dormant Mycobacterium tuberculosis H37Ra at 3 ug after 12 days by XTT-Menadione assay; format: functional
[9] = test system: Mycolicibacterium smegmatis; assay: Antitubercular activity against dormant Mycobacterium smegmatis MC2 155 at 30 ug after 12 days by XTT-Menadione assay; format: functional, str. MC2 155
[10] = test system: Mycolicibacterium smegmatis; assay: Antitubercular activity against dormant Mycobacterium smegmatis MC2 155 at 10 ug after 12 days by XTT-Menadione assay; format: functional, str. MC2 155
[11] = test system: Mycolicibacterium smegmatis; assay: Antitubercular activity against dormant Mycobacterium smegmatis MC2 155 at 3 ug after 12 days by XTT-Menadione assay; format: functional, str. MC2 155
Escherichia coli [12] = assay: Antibacterial activity against Escherichia coli at 30 ug after 8 hrs; format: functional
Escherichia coli [13] = assay: Antibacterial activity against Escherichia coli at 10 ug after 8 hrs; format: functional
Escherichia coli [14] = assay: Antibacterial activity against Escherichia coli at 3 ug after 8 hrs; format: functional
Pseudomonas fluorescens [15] = assay: Antibacterial activity against Pseudomonas fluorescens at 30 ug after 8 hrs; format: functional
Pseudomonas fluorescens [16] = assay: Antibacterial activity against Pseudomonas fluorescens at 10 ug after 8 hrs; format: functional
Pseudomonas fluorescens [17] = assay: Antibacterial activity against Pseudomonas fluorescens at 3 ug after 8 hrs; format: functional
Staphylococcus aureus [18] = assay: Antibacterial activity against Staphylococcus aureus at 30 ug after 12 hrs; format: functional
Staphylococcus aureus [19] = assay: Antibacterial activity against Staphylococcus aureus at 10 ug after 12 hrs; format: functional
Staphylococcus aureus [20] = assay: Antibacterial activity against Staphylococcus aureus at 3 ug after 12 hrs; format: functional
Bacillus subtilis [21] = assay: Antibacterial activity against Bacillus subtilis at 30 ug after 12 hrs; format: functional
Bacillus subtilis [22] = assay: Antibacterial activity against Bacillus subtilis at 10 ug after 12 hrs; format: functional
Bacillus subtilis [23] = assay: Antibacterial activity against Bacillus subtilis at 3 ug after 12 hrs; format: functional

SMILES | IC50 [1] [µg/mL] | MIC [1] [µg/mL] | IC50 [2] [µg/mL] | MCC at 120 h [2] [µg/mL] | IC50 [3] [µg/mL] | MCC at 120 h [3] [µg/mL] | MCC at 72 h [4] [µg/mL] | IC50 (A549) [µg/mL] | MCC at 96 h [5] [µg/mL] | IC50 (MCF7) [µg/mL] | inhibition (INH) [6] [%] | inhibition (INH) [7] [%] | inhibition (INH) [8] [%] | inhibition (INH) [9] [%] | inhibition (INH) [10] [%] | inhibition (INH) [11] [%] | inhibition (INH) (Escherichia coli [12]) [%] | inhibition (INH) (Escherichia coli [13]) [%] | inhibition (INH) (Escherichia coli [14]) [%] | inhibition (INH) (Pseudomonas fluorescens [15]) [%] | other results
Cc1cnc(C(=O)NN2C(=O)CS[C@@H]2c2cccc([N+](=O)[O-])c2)cn1 | 4.29 (≈ 11.9 µM) | 29 (≈ 80.7 µM) | > 100 | > 100 | > 100 | > 100 | > 100 | > 100 | > 100 | > 100 | 91.39 | 56.26 | 48.93 | 19.6 | 20.19 | 57.26 | 70.21 | 53.08 | 47.15 | 42.75 | inhibition (INH) (Pseudomonas fluorescens [16]): 33.6%; inhibition (INH) (Pseudomonas fluorescens [17]): 20.43%; inhibition (INH) (Staphylococcus aureus [18]): 17.56%; inhibition (INH) (Staphylococcus aureus [19]): 33.4%; inhibition (INH) (Staphylococcus aureus [20]): -1.03%; inhibition (INH) (Bacillus subtilis [21]): 4.11%; inhibition (INH) (Bacillus subtilis [22]): 0.21%; inhibition (INH) (Bacillus subtilis [23]): 3.26%
O=C(NN1C(=O)CS[C@@H]1c1ccc([N+](=O)[O-])cc1)c1cnccn1 | 1.47 (≈ 4.25 µM) | 29 (≈ 84 µM) | 97.7 (≈ 283 µM) | > 100 | > 100 | > 100 | > 100 | > 100 | > 100 | 65.6 (≈ 190 µM) | 90.93 | 66.45 | 60.59 | 9.803 | -31.0588 | 36.09 | 9 | 14.12 | -6.69 | -21.38 | inhibition (INH) (Pseudomonas fluorescens [16]): 13.35%; inhibition (INH) (Pseudomonas fluorescens [17]): 6.405%; inhibition (INH) (Staphylococcus aureus [18]): -24.9%; inhibition (INH) (Staphylococcus aureus [19]): -1.75%; inhibition (INH) (Staphylococcus aureus [20]): 21.93%; inhibition (INH) (Bacillus subtilis [21]): 8.09%; inhibition (INH) (Bacillus subtilis [22]): -4.94%; inhibition (INH) (Bacillus subtilis [23]): 16.03%
Cc1cnc(C(=O)NN2C(=O)CS[C@@H]2c2ccc([N+](=O)[O-])cc2)cn1 | 0.528 (≈ 1.47 µM) | 27.5 (≈ 76.6 µM) | > 100 | > 100 | > 100 | > 100 | > 100 | > 100 | > 100 | > 100 | 91.72 | 73.66 | 72.31 | 10.44 | 42.01 | 57.99 | 62.08 | 37.74 | 56.92 | 22.82 | inhibition (INH) (Pseudomonas fluorescens [16]): 7.48%; inhibition (INH) (Pseudomonas fluorescens [17]): 26.73%; inhibition (INH) (Staphylococcus aureus [18]): 13.12%; inhibition (INH) (Staphylococcus aureus [19]): -8.13%; inhibition (INH) (Staphylococcus aureus [20]): 9.39%; inhibition (INH) (Bacillus subtilis [21]): 13.11%; inhibition (INH) (Bacillus subtilis [22]): 22.68%; inhibition (INH) (Bacillus subtilis [23]): 21.45%
O=C(NN1C(=O)CS[C@@H]1c1ccc(Cl)cc1)c1cnccn1 | 1.09 (≈ 3.26 µM) | 28.8 (≈ 86.1 µM) | > 100 | > 100 | > 100 | > 100 | > 100 | > 100 | > 100 | > 100 | 91.2 | 66.53 | 66.68 | -1.593 | -6.521 | 41.55 | 51.04 | 38.71 | -35.07 | 14.72 | inhibition (INH) (Pseudomonas fluorescens [16]): 3.658%; inhibition (INH) (Pseudomonas fluorescens [17]): 8.12%; inhibition (INH) (Staphylococcus aureus [18]): -47.91%; inhibition (INH) (Staphylococcus aureus [19]): 12.54%; inhibition (INH) (Staphylococcus aureus [20]): 8.74%; inhibition (INH) (Bacillus subtilis [21]): 17.44%; inhibition (INH) (Bacillus subtilis [22]): 9.6%; inhibition (INH) (Bacillus subtilis [23]): -13.1%
